The values below are quoted from earlier work in publication PMC4287963 (Inorganic chemistry, 2009).

For the data set the following is noted: Cu(II) complex of TETA; cited from earlier work.

For `O=C(O)CN1CCCN(CC(=O)O)CCN(CC(=O)O)CCCN(CC(=O)O)CC1` [TETA], the “thermodynamic formation constant log K” value is listed as 21.9.
